Data taken from ChEMBL document CHEMBL1139216, “Discovery and refinement of a new structural class of potent peptide deformylase inhibitors” (J Med Chem, 2007).
Converted amounts (≈) assume the structure as drawn.

Columns and labels:
[1] = molecular target: T1, Peptide deformylase 1A, chloroplastic/mitochondrial (Arabidopsis thaliana, UniProt Q9FV53)
T1 sequence (Q9FV53 whole entry): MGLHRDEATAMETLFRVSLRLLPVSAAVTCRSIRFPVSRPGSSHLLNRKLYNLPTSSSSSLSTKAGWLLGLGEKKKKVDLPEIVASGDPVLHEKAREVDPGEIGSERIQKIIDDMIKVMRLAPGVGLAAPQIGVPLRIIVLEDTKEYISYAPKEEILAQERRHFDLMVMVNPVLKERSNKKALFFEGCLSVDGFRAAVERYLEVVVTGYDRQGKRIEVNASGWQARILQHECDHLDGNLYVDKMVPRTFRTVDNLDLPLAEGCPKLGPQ

[2] = molecular target: T2, Peptide deformylase (Escherichia coli, UniProt Q9JN24)
T2 sequence (Q9JN24 whole entry): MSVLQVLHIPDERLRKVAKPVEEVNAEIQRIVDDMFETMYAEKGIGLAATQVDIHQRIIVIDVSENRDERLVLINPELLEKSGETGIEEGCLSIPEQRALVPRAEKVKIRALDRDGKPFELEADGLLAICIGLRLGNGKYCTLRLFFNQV

[3] = test system: Bacillus subtilis; test: Antibacterial activity against Bacillus subtilis MO3482; type: functional
[4] = test system: Escherichia coli; test: Antibacterial activity against Escherichia coli JM101Tr; type: functional
[5] = test system: Escherichia coli; test: Antibacterial activity against Escherichia coli CAG1284; type: functional
[6] = test system: Bacillus subtilis; test: Antibacterial activity against Bacillus subtilis 168; type: functional
[7] = test system: Bacillus subtilis; test: Antibacterial activity against Bacillus subtilis D101; type: functional
[8] = test system: Bacillus subtilis; test: Antibacterial activity against Bacillus subtilis Y101; type: functional
[9] = molecular target: T3, Peptide deformylase, mitochondrial (Homo sapiens, UniProt Q9HBH1)
T3 sequence (Q9HBH1 whole entry): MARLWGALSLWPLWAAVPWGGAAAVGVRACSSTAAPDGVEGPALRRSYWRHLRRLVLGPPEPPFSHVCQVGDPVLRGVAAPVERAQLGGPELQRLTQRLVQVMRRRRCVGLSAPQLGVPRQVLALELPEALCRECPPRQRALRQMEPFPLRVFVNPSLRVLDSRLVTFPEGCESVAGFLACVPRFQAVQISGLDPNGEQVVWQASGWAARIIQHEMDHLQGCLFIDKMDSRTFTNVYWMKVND

[10] = test system: Bacillus subtilis; test: Antibacterial activity against Bacillus subtilis; type: functional
[11] = test system: Escherichia coli; test: Antibacterial activity against Escherichia coli K37; type: functional

Compound | IC50 [1] [µM] | IC50 [2] [µM] | MIC [4] [µg/mL] | other results
CC(C)(C)OC(=O)NC(CNO)Cc1ccccc1 (stereo not given) | > 1000 | 52 |  | 
O=C(CO)Cc1c[nH]c2ccc(Br)cc12 | 790 | 560 | > 300 | MIC [3]: > 300 µg/mL; MIC [5]: > 300 µg/mL; MIC [6]: > 300 µg/mL; MIC [7]: > 300 µg/mL; MIC [8]: > 300 µg/mL
CC(=O)SCC(=O)Cc1c[nH]c2ccccc12 | > 1000 | 200 |  | 
Cc1[nH]c2ccc(Br)cc2c1CC(=O)NO | 450 |  | > 300 | IC50 [9]: 450 µM; MIC [10]: 220 µg/mL (≈ 777 µM)
COc1ccc2[nH]cc(CC(=O)NO)c2c1 | > 1000 |  | > 300 | MIC [10]: 155 µg/mL (≈ 704 µM)
Cc1c(CN(O)C=O)c2cc(Br)ccc2n1S(=O)(=O)c1ccccc1 | 35 | 0.03 | 65 (≈ 154 µM) | IC50 [9]: 200 µM; MIC [10]: 35 µg/mL (≈ 82.7 µM)
O=C(O)Cc1cn(C(=O)OCc2ccccc2)c2ccccc12 | > 1000 | 300 |  | 
CC(C)(C)OC(=O)NC(Cc1ccccc1)CN(O)C=O (stereo not given) |  | 0.05 | > 300 | MIC [3]: > 300 µg/mL; MIC [5]: 120 µg/mL (≈ 408 µM); MIC [6]: > 300 µg/mL; MIC [7]: > 300 µg/mL; MIC [8]: 9 µg/mL (≈ 30.6 µM)
CC(=O)SCC(=O)Cc1cn(C(=O)OCc2ccccc2)c2ccccc12 | 500 | 350 |  | 
O=C(CS)Cc1c[nH]c2ccc(Br)cc12 | 200 | 80 |  | 
Cc1c(CNO)c2cc(Br)ccc2n1S(=O)(=O)c1ccccc1 | 500 | 6 |  | 
CC(=O)SCC(=O)Cc1c[nH]c2ccc(Br)cc12 | 170 | 120 |  | 
Cc1[nH]c2ccc(Br)cc2c1CNO | > 250 | 50 |  | 
CCCCC[C@H](CC(=O)NO)C(=O)N[C@H](C(=O)N1CCC[C@H]1CO)C(C)C [ACTINONIN] | 0.027 | 0.01 | 34 (≈ 88.2 µM) | MIC [3]: 1 µg/mL (≈ 2.59 µM); MIC [10]: 1.3 µg/mL (≈ 3.37 µM); MIC [11]: 32 µg/mL (≈ 83 µM); MIC [5]: 0.125 µg/mL (≈ 0.324 µM); MIC [6]: 1 µg/mL (≈ 2.59 µM); MIC [7]: 1 µg/mL (≈ 2.59 µM); MIC [8]: 0.125 µg/mL (≈ 0.324 µM)
O=C(O)Cc1c[nH]c2ccccc12 [INDOLE-3-ACETIC ACID] | > 1000 | > 1000 |  | 
